Results published in EP3037106A1, “TXA2 inhibitor as stimulator or inducer of MHC Class I cross-presentation” (INSTITUT PASTEUR, priority 2014, dated 2016).
“Also recorded” adds a separate entry of the source.

Experiments:
[1] = test system: bone marrow derived macrophages (BMMs); assay: FRET assay for antigen cytosolic transfer (CCF4-AM/β-lactamase) in bone marrow derived macrophages; assay type: cell-based, C57/black-6 mice; details: for transfer of β-lactamase to the cytosol (450/535 nm ratio, CCF4 cleavage): compound 15 minutes at 37°C (AACOCF3 0.25mM, baïcalein 1mM, indomethacin 1mM, sulindac sulphide 1mM, ICI192605 1mM, arachidonic acid 80µM), then 1 mg/ml β-lactamase 90 minutes at 37°C; for effect on indomethacin induced transfer of β-lactamase to the cytosol: indomethacin 1mM 15 minutes, then β-lactamase with wortmannin 0.5µM, radicicol 25µM or Pyr41 10µM for 90 minutes at 37°C; for reversal of inhibitor-induced antigen transfer to the cytosol (complementation): after indomethacin 1mM or AACOCF3 0.25mM, diMePGE2 or U46619 10µM added with β-lactamase for 90 minutes at 37°C
Experimental: Primary Cells and Mice - Bone marrow derived dendritic cells and macrophages were isolated by flushing femur and tibia from 6 to 9 weeks old C57/black-6 mice with ROSWELL PARK MEMORIAL INSTITUTE-1640 (RPMI-1640) supplemented with GLUTAMAX using 5 ml syringes (BD PLASTIPAK) and 0.5 x 16 mm needles 25G 5/8 (BD MicroLance). After centrifugation at 1000 rpm for 4 minutes, cells were resuspended in 1.66% NH4Cl, and put at 4°C for 10 minutes. After centrifugation at 1,000 rpm for 4 minutes, cells were quantified and incubated at 37°C/5% CO2 for 7 to 10 days in RPMI-1640 with GLUTAMAX containing 10% v/v fetal calf serum (GIBCO) and 50µg/ml penicillin/streptomycin (GIBCO). Granulocytes and macrophages-colony stimulating factor (GM-CSF, MILTENIY BIOTEC) and macrophages-colony stimulating factor (M-CSF, PREPROTECH) were added at day 0 at a concentration of 50 ng/ml in order to allow dendritic cells or macrophages differentiation. Dendritic cells were replated every 3 days adding each time fresh GM-CSF. Macrophages were supplemented with fresh M-CSF at day 4 and replated at day 7 with M-CSF at 25ng/ml. Plasmacytoïd and conventional dendritic cells were isolated from C57/black-6 mice spleen using a plasmacytoïd dendritic cell isolation kit (MILTENYI BIOTEC) and a CD8+ dendritic cell isolation kit (MILTENYI BIOTEC). BMDCs, pDCs and cDCs were adhered on 0.01% poly-lysine coated plates in phosphate buffer saline (PBS).
(§1) FRET assay for antigen cytosolic transfer - 30,000 to 50,000 cells were seeded on 96 well plates and loaded in a mix containing 3.3µM CCF4-AM (INVITROGEN), 1mM probenecid (SIGMA) and 1.5µl solution B (INVITROGEN) in EM buffer (120mM NaCl, 7mM KCI, 1.8mM CaCl2, 0.8mM MgCl2, 5mM glucose and 25mM HEPES at pH 7.3) in a final volume of 30 µl at 37°C. Following 1 mg/ml β-lactamase incubation in EM buffer, cells were washed with 1mM PBS/probenecid and imaged in EM buffer containing 1mM probenecid.
(§2) Fluorescence microscopy and image analysis - All acquisitions were performed on a NIKON TI WIDEFIELD microscope with a 20X N-Plan Objective. Experiments in triplicates were repeated at least 3 times independently for each condition using 25 pictures per replicate randomly and automatically. Image analysis was performed using custom-designed algorithms as described in Ray et al. 2010 (Cell Microbiol. 12(4): 545-556) and Simeone et al. 2012 (PLoS Pathog. 8(2): e1002507). Briefly, the 450 and 535 nm emission signals were scored automatically for each individual cells on a large set of images using METAMORPH. The quantitative parameters were then exported as an EXCEL file in which the ratio between the intensity of the 450 and 535 nm emission signals were presented as an average of the ratio in the whole cell population. After algorithm processing, mean ratios 450/535 nm from different replicates were obtained and pooled together as an average and the status of cytosolic transfer was assessed. Error bars represent standard deviation.

[2] = at 37°C; cited from earlier work
[3] = test system: bone marrow derived macrophages (BMMs); assay: Cytosolic delivery of fluorescent antigens (Cy3-dextran, Cy3-β-lactamase, Cy3) by widefield microscopy; assay type: cell-based, C57/black-6 mice; details: indomethacin 1mM 15 minutes; for transfer of fluorescent dextran to the cytosol: 10-kDa Cy3-dextran 1 mg/ml for 90 minutes; for transfer of Cy3-labelled β-lactamase to the cytosol: Cy3-Bla 0.2 mg/ml for 90 minutes
[4] = test system: bone marrow derived dendritic cells (BMDCs); assay: B3Z cross-priming experiments (cross-presentation of ovalbumin); assay type: cell-based, C57/black-6 mice; details: 15 minutes indomethacin 1mM or lactacystine 3µM, serial dilutions of ovalbumin 4 hours, B3Z hybridoma cells 1:1 overnight
Experimental: B3Z cross-priming experiments - 50,000 BMDCs per well were seeded on poly-L-lysine coated 96 well plates. After treatment with DMSO, 3µM lactacystine, or 1mM indomethacin for 15 minutes in RPMI-1640 complemented with 10% v/v fetal calf serum and 50 µg/ml penicillin/streptomycin at 37°C, cells were incubated with serial dilutions (from 3 to 0.0275 mg/ml) of ovalbumin (EUROMEDEX) for 4 hours. Triplicates were performed for each concentration and serial dilutions of the SIINFEKL 257-264 peptide (POLYPEPTIDE GROUP) were used as positive control (dilutions 1/10 starting from 0.1µg/ml). After 3 washes, cells are incubated overnight with 50,000 B3Z hybridoma cells at 37°C, washed once and subjected to the chlorophenol red-D-galactopyranoside (CPRG) detergent mix containing 100mM β-mercaptoethanol, 100mM MgCl2, 0.125% NP40 and 0.15mM CPRG at 37°C for 4 hours. OD 492 as indicator of β-galactosidase (lacZ) activity produced under the control of the interleukin 2 promoter was subsequently measured by plate reader. Data were obtained from 3 independent experiments and plotted by GRAPHPAD PRISM (error bars: standard deviation).

HeLa cells = assay: FRET assay for antigen cytosolic transfer (CCF4-AM/β-lactamase) in HeLa cells; assay type: cell-based; details: indomethacin 1mM 15 minutes at 37°C, 1 mg/ml β-lactamase 90 minutes
[5] = test system: BV2 macrophages-like cells; assay: FRET assay for antigen cytosolic transfer (CCF4-AM/β-lactamase) in BV2 macrophage like cells; assay type: cell-based, Murine; details: indomethacin 1mM 15 minutes; for indomethacin induced transfer of β-lactamase adsorbed to beads or expressed by E. coli: increasing amount of beads adsorbed or E. coli expressed β-lactamase at 37°C for 90 minutes; for indomethacin induced cytosolic transfer as a function of external β-lactamase concentration: increasing amount of β-lactamase at 37°C for 90 minutes
Experimental: Cell lines - Murine Raw and BV2 macrophages like cells were cultured in RPMI-1640 with GLUTAMAX (GIBCO) containing 10% v/v fetal calf serum (GIBCO) and 50 µg/ml penicillin/streptomycin (GIBCO). B3Z were cultured in the same medium but supplemented with 1mg/ml G418 (SIGMA) and 0.4 mg/ml hygromycin B (SIGMA). JAWS-II cells were cultured in Iscove's Modified Dulbecco's Media (IMDM) with L-Glutamine and 25mM HEPES containing 10% v/v fetal calf serum (GIBCO), 50 µg/ml penicillin/streptomycin (GIBCO) and 5ng/ml GM-CSF. All cell lines were maintained at 37°C and 5% CO2.
Preparation of beads and bacteria - E. coli DH5α were used expressing β-lactamase from a pBAD18 plasmid. After PBS washing, bacteria were re-suspended in EM buffer and the MOI was calibrated by measuring the absorbance of the overnight culture at OD 600nm. 3µm polystyrene beads (TEBU-BIO) were washed once before adsorption with β-lactamase at 4°C on a rotating wheel overnight. After PBS washing, beads were re-suspended in PBS buffer.
as §1, §2

For `CCCCC/C=C\C/C=C\C/C=C\C/C=C\CCCC(=O)C(F)(F)F` [AACOCF3, 1,1,1-trifluoro-6Z,9Z,12Z,15Z-heneicosatetraen-2-one], the “transfer of β-lactamase to the cytosol (450/535 nm ratio, CCF4 cleavage)” value (from here on “transfer … (450/535 nm ratio, CCF4 cleavage)”) [1] was “dramatically and robustly boosted transfer of the model antigen β-lactamase to the cytosol”.

With `O=C(O)CC/C=C\CC1COC(c2ccccc2Cl)OC1c1ccccc1O` (stereo not drawn) [ICI192605, 4-(Z)-6-(2-o-Chlorophenyl-4-o-hydroxyphenyl-1,3-dioxan-cis-5-yl)hexenoic acid] the “transfer … (450/535 nm ratio, CCF4 cleavage)” value [1] was “led to a robust antigen transfer”.

For `CCCCC[C@H](O)/C=C/[C@H]1[C@H](O)CC(=O)[C@@H]1C/C=C\CCCC(=O)O` [PGE2, prostaglandin E2], the half-life [2] is listed as “less than one minute”.

In the case of `CCOC(=O)c1ccc(N2NC(=O)/C(=C/c3ccc([N+](=O)[O-])o3)C2=O)cc1` [Pyr41], the “effect on indomethacin induced transfer of β-lactamase to the cytosol” value [1] is reported as “decreased cytosolic antigen transfer induced by indomethacin; also recorded: restrained”.

For `CCCCC[C@H](O)/C=C/[C@H]1O[C@H]2C[C@H](O2)[C@@H]1C/C=C\CCCC(=O)O` [TXA2, Thromboxane A2], the half-life [2] is given as “less than one minute”.

In the case of `CCCCC[C@H](O)/C=C/[C@@H]1[C@@H](C/C=C\CCCC(=O)O)[C@H]2CO[C@@H]1C2` [U46619], the “reversal of inhibitor-induced antigen transfer to the cytosol (complementation)” value [1] is reported as “reduced the inhibitor-induced antigen transfer to the cytosol”.

With `CCCCC/C=C\C/C=C\C/C=C\C/C=C\CCCC(=O)O` [arachidonic acid] the “transfer … (450/535 nm ratio, CCF4 cleavage)” value [1] was “triggered cytosolic access of our model antigen β-lactamase”.

For `C/C=C/[C@H]1O[C@@](O)([C@@H](C)[C@H](O)[C@H](C)[C@H]2OC(=O)/C(OC)=C/C(C)=C/[C@@H](C)[C@@H](O)[C@@H](C)[C@@H](O)[C@H](C)C/C(C)=C/C=C/[C@@H]2OC)C[C@@H](O[C@H]2C[C@@H](O)[C@H](OC(N)=O)[C@@H](C)O2)[C@@H]1C` [conB, Concanamycin B], the “cytosolic transfer of β-lactamase on increased endosomal antigen stability” value ([1]; concanamycin B 25nM or protease inhibitors 1X with β-lactamase for 90 minutes at 37°C) was “neither conB nor PI incubation led to any cytosolic transfer of β-lactamase”.

In the case of `CCCCC(C)(C)[C@H](O)/C=C/[C@H]1[C@H](O)CC(=O)[C@@H]1C/C=C\CCCC(=O)O` [dimethylPGE2, dimethyl-prostaglandin E2], the “reversal of inhibitor-induced antigen transfer to the cytosol (complementation)” value [1] is reported as “did not lead to a reversal of the effect of antigen transfer to the cytoplasm”.

For `COc1ccc2c(c1)c(CC(=O)O)c(C)n2C(=O)c1ccc(Cl)cc1` [indomethacin, 1-(4-chlorobenzoyl)-5-methoxy-2-methyl-1H-indole-3-acetic acid], the “transfer of fluorescent dextran to the cytosol” value [3] was “the staining switched to cytosolic staining”, the “transfer of fluorescent dextran to the cytosol” value ([3]; listed as Indomethacin) was “triggers the transfer of Cy3 labeled β-lactamase, dextran and Cy3 to the cytosol” and the “transfer of Cy3 alone to the cytosol” value ([3]; Cy3 0.2 mg/ml for 90 minutes, listed as Indomethacin) was “triggers the transfer of Cy3 labeled β-lactamase, dextran and Cy3 to the cytosol”. For the same compound, the “transfer of Cy3-labelled β-lactamase to the cytosol” value [3] was “induced not only the transfer of Cy3-labelled β-lactamase”, the “transfer of Cy3-labelled β-lactamase to the cytosol” value ([3]; listed as Indomethacin) was “triggers the transfer of Cy3 labeled β-lactamase, dextran and Cy3 to the cytosol” and the “cross-presentation of ovalbumin (B3Z lacZ activity, CPRG)” value (“cross-presentation of ovalbumin” below) [4] was “displayed enhanced capacities for cross-priming compared to the DMSO control”. The “cross-presentation of ovalbumin” value ([4]; listed as Indomethacin) was “promotes cross-presentation of ovalbumin”, the “transfer of β-lactamase to the cytosol in HeLa cells” value (HeLa cells) was “no cytosolic β-lactamase delivery” and the “transfer of β-lactamase to the cytosol in HeLa cells” value (HeLa cells; listed as Indomethacin) was “does not trigger the transfer of β-lactamase to the cytosol”. For the same compound, the “indomethacin induced transfer of β-lactamase adsorbed to beads or expressed by E. coli” value [5] was “same dose-dependency”, the “indomethacin induced transfer of β-lactamase adsorbed to beads or expressed by E. coli” value ([5]; listed as Indomethacin) was “is also able to trigger the transfer of β-lactamase when adsorbed to beads or expressed by E. coli in BV2 macrophages-like cells in a dose dependent manner” and the “indomethacin induced cytosolic transfer as a function of external β-lactamase concentration” value [5] was “dose-dependent on the external concentration of β-lactamase”. For the same compound, the “indomethacin induced cytosolic transfer as a function of external β-lactamase concentration” value ([5]; listed as Indomethacin) was “depends on the external concentration of β-lactamase” and the “transfer … (450/535 nm ratio, CCF4 cleavage)” value [1] was “led to a robust cytosolic transfer of beta-lactamase”.

For `CC(=O)N[C@@H](CSC(=O)[C@]1([C@@H](O)C(C)C)NC(=O)[C@H](C)[C@@H]1O)C(=O)O` [lactacystin], the “cross-presentation of ovalbumin” value [4] was “do not cross-present ovalbumin”.

With `C[C@@H]1C[C@H]2O[C@@H]2/C=C\C=C\C(=O)Cc2c(Cl)c(O)cc(O)c2C(=O)O1` [radicicol] the “effect on indomethacin induced transfer of β-lactamase to the cytosol” value [1] was “restrained”.
